Reference: article PMC10901097, “Vanillin derivatives as antiamnesic agents in scopolamine-induced memory impairment in mice” (Heliyon, 2024)
“Also recorded” adds a separate entry of the source.

What was measured:
[1] = DPPH free radical scavenging assay; settings: triplicate (n = 3); 517 nm, 15 min
Procedure: A slightly modified DPPH assay as described by Brand William was followed. Initially, the absorbance of 3 mL from stock DPPH (20 mg/100 mL of methanol) was adjusted to 0.75 at 517 nm. The DPPH stock solution was covered and kept in the dark overnight to generate free radicals. About 2 mL of each dilution of different ranges (0.1–3.5 μM) was prepared from SB1– SB6 stock (5 mg/5 mL of methanol) were mixed with 2 mL of pre-incubated DPPH stock solution and incubated for 15 min at room temperature. Ascorbic acid was used as a standard. The absorbance of the reaction mixtures was recorded at 517 nm and the % inhibition was calculated by Equation (1):[1] %inhibition=A−B/A×100
where A = absorbance of pure DPPH in oxidized form, B = absorbance of the sample, which
Was measured after 15 min of reaction with DPPH.

[2] = ABTS free radical scavenging assay; settings: triplicate (n = 3); 745 nm, 15 min
Procedure: The antioxidant potential of the synthesized compounds were also determined using ABTS free radical following a reported standard protocol. ABTS (7 mM) and K2S2O8 (2.45 mM) were mixed (in methanol) and put in the dark for 24 h for free radicals’ formation, which was then used as stock solution. The absorbance of 3 mL from the stock ABTS was adjusted to 0.75 at 745 nm, which was considered a control. About 300 μl of each of the serial dilutions (0.1–3.5 μM) of SB1– SB6 and 3 mL of stock ABTS were mixed and incubated for 15 min at 25 °C, and their absorbance was measured at 745 nm. Ascorbic acid was used as a control. The scavenging activity was calculated by Equation (1).

[3] = target: T1, butyrylcholinesterase (EC 3.1.1.8) (Homo sapiens, UniProt P06276); assay: In-vitro BChE inhibitory assay (Ellman's protocol); format: biochemical; settings: triplicate (n = 3); 405 nm
T1 construct: purchased local market (no vendor named)
T1 sequence (P06276 29-602): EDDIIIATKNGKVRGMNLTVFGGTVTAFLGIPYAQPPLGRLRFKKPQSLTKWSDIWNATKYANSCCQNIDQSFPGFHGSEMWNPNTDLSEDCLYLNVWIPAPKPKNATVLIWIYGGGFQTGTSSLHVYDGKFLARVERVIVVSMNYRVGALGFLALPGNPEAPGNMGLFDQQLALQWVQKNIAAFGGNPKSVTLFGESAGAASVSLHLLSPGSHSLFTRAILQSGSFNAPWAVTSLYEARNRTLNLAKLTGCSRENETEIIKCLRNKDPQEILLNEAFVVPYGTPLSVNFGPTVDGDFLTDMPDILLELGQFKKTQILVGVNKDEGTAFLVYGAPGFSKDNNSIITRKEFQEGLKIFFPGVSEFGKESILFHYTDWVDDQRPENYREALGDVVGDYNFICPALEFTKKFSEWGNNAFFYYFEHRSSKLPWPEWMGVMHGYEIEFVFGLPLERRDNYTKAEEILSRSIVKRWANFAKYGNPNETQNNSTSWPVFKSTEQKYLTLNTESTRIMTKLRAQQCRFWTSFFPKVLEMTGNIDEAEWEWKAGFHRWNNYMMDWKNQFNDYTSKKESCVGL
Procedure: (§1) To evaluate the therapeutic effectiveness of the compounds as inhibitors of cholinesterases, the reported procedures were followed (Elman's protocol). Enzymes acetylcholinesterase (EC 3.1.1.7) and butyrylcholinesterase (EC 3.1.1.8) were purchased from local market.
The absorbance at 405 nm was measured and the data were analysed in triplicate.

[4] = system: scopolamine-induced memory impairment in mice; assay: Novel object recognition test (NORT), scopolamine-induced amnesia; format: in vivo, Albino mice; settings: for effect on time spent with the new object N (exploration time) in NOR test: 50 and 100 mg/kg b.w (galantamine: standard), compared with scopolamine group; for effect on latency time to discover familiar object (F) in NOR test: 50 and 100 mg/kg b.w, compared with scopolamine-injected group; for effect on discrimination index in NOR test: 50 mg/kg and 100 mg/kg b.w, compared with scopolamine group / galantamine
Procedure: (§2) Albino mice (20–23 g b. w.) were brought from National Institute of Health, Islamabad, Pakistan, and the mice were retained in animal house at University of Malakand at Department of Pharmacy for acclimation. Normal pellet diet and water were provided to all the animals and were kept for 12 h of light-dark cycle under normal laboratory conditions (temperature in a range of 25 ± 2 °C, humidity of 56–66%). All protocols employed were approved from the Ethical Committee vide notification Pharm/EC-QRE/10–31/25 as per approved “Animal Bye-Laws 2008, Scientific Procedures Issue-I of the Malakand University” and the UK animal scientific procedure act (1986).
(§3) After acclimatization, the animals were grouped into different groups consisting of 6 animals each. […] It also can induce amyloid β deposition, oxidative stress, synaptic dysfunction, and learning/memory impairment in experimental animals. […] The treatment was carried out continuously for 7 days and after treatment schedule, the animals were subjected to behavioural study using Y-maze and NORT.
NORT was used to assess the effect of vanillin derivatives on memory in mice model. The apparatus employed in this test measures 40 cm wide, 40 cm long, and 66 cm tall. NORT entails a two-day habituation period, followed by a two-day training session and finally a testing or experimental period. During habituation, an empty box was used, two identical objects were placed in two corners of the box during training, and one unique object was replaced during testing as shown in Fig. 3. To test long-term memory in mice, a five-day washout period was provided before the NORT. The time spent in each phase was manually documented using a stopwatch.
Fig. 3 Procedures for novel object recognition (NORT). The three phases of the test are shown. In NORT, object identity is changed between training and test; object location is remained unchanged.

[5] = system: scopolamine-induced memory impairment in mice; assay: Y-maze spontaneous alternation, scopolamine-induced amnesia; format: in vivo, Albino mice; settings: for effect on spontaneous alternation / short-term memory retention in Y-Maze (significance): 50 and 100 mg/kg b.w, compared with scopolamine-injected group
Procedure: as §2
as §3, with “animals. Group II received scopolamine along with galantamine as standard.” for “animals.”
To assess the short-term memory (amnesic) effect, the exploratory activity of mice were investigated using Y- maze apparatus. At a time, a single mouse was placed at Y-shaped maize and allowed to move freely for 5-min session and alterations were recorded as shown in Fig. 2. The percentage alternations were calculated as per reported protocol and mathematically as given in equation (2).[2] %Alternation=Spontaneousalternation/Totalnumberofarmentries−2×100
Fig. 2 (A). Schematic drawings of the Y-maze and the experimental procedures. The sample trial and test trials were conducted for 5 min at a 30 min interval. (B) The Y-Maze test diagrammatic figure. (a) The mouse was positioned in the middle of the fixed arm and faced the maze's centre during the test. (b) A mouse was considered to have entered an arm when all four of its paws passed the threshold inside the arm and the mouse's snout was pointed in the direction of the end of the arm. (C). Alternations consist of single, uninterrupted entries into each arm of the y-maze. There are three steps involved in each alternation. The steps of alternation are shown in (a) the first entrance into the arm 1; (b) the second entry into the arm 3; and (c) the third entry into the arm 2 [41, 42].

[6] = target: T2, acetylcholinesterase (EC 3.1.1.7) (Homo sapiens, UniProt P22303); assay: biochemical; settings: triplicate (n = 3); 405 nm; read-out: IC50 (μM) AChE
T2 construct: purchased local market (no vendor named)
T2 sequence (P22303 32-614, species assumed): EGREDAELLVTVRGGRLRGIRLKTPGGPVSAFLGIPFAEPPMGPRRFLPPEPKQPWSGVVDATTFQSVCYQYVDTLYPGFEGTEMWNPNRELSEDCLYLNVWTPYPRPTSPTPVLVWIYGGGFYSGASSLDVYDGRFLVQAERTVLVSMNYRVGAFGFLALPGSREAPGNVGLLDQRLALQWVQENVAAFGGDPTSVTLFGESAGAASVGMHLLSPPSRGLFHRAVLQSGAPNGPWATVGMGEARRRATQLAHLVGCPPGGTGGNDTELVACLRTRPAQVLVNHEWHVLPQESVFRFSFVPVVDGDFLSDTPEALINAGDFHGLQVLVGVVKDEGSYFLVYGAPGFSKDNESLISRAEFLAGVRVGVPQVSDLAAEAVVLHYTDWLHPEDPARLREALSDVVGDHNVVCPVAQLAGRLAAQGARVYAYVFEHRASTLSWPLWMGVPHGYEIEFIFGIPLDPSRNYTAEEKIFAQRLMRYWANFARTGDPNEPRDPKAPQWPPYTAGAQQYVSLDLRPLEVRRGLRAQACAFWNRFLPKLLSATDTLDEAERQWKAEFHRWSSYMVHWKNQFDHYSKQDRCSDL
From the text: as §1
The acetylcholinesterase inhibition assay is based on the principle of the hydrolytic breakdown of substrate; acetylthiocholine iodide by acetylcholinesterase enzyme. The AChE acts on acetylthiocholine to thiocholine which then react with DTNB that's leads towards the formations of anion (5-thio-2-nitrobenzoate) a yellow colour product which is then assessed via UV visible spectrophotometer at 405 nm.
The AChE, Ellman's Reagent (DTNB) and acetylthiocholine iodide (ATChI, substrate), and the test compound solutions were made in different concentrations ranges from (0.01–1.0 μM) were incubated per detail given in the Ellman's protocol. […] IC50 of each Schiff bases were calculated using Microsoft Excel 2013 software.

[7] = 50 mg/kg b.w (lower test dose), 7 days, with scopolamine 2 mg/kg i.p., mean ± SEM, n = 6

Cc1ccc(/N=C/c2ccc[nH]2)c(Cl)c1 [SB-6, (E)-N-((1H-pyrrol-2-yl)methylene)-2-chloro-4-methylaniline]
IC50 [1]: 2.8 µM
IC50 [2]: 3.3 µM
IC50 [3]: 0.117 µM
effect on time spent with the new object N (exploration time) in NOR test [4]: slight activity
effect on latency time to discover familiar object (F) in NOR test [4]: decreased the latency time significantly

O=C1O[C@H]([C@@H](O)CO)C(O)=C1O [Ascorbic acid, reference compound]
IC50 [1]: 0.074 µM
IC50 [2]: 0.073 µM

COc1ccc(/C=N/c2ccccc2C(F)(F)F)cc1O [SB-2, (E)-2-methoxy-5-(((2-(trifluoromethyl)phenyl)imino)methyl)phenol]
effect on spontaneous alternation / short-term memory retention in Y-Maze (significance) [5]: no significant effect
IC50 [1]: 0.447 µM
IC50 [2]: 0.401 µM
IC50 [3]: 0.188 µM
IC50 [6]: 0.61 µM
effect on discrimination index in NOR test [4]: insignificant activity
effect on time spent with the new object N (exploration time) in NOR test [4]: insignificant activity
effect on latency time to discover familiar object (F) in NOR test [4]: insignificant
changes in the memory and cognition of mice (NORT) ([4]; mouse, in vivo): did not cause any changes

Cc1ccc(/N=C/c2ccc(O)cc2)c(Cl)c1 [SB-4, (E)-4-(((2-chloro-4-methylphenyl)imino)methyl)phenol]
IC50 [1]: 0.804 µM
IC50 [2]: 0.969 µM
IC50 [3]: 0.367 µM
IC50 [6]: 0.108 µM
effect on discrimination index in NOR test [4]: most prominent activity
effect on time spent with the new object N (exploration time) in NOR test [4]: significant increase
effect on latency time to discover familiar object (F) in NOR test [4]: decreased the latency time significantly

CN1[C@@H]2C[C@@H](OC(=O)[C@H](CO)c3ccccc3)C[C@H]1[C@@H]1O[C@@H]12 [Scopolamine]
spontaneous alternation rate in Y-Maze ([5]; scopolamine-treated group, 2 mg/kg i.p. alone, n = 6): 38.16%

COc1ccc2c3c1O[C@H]1C[C@@H](O)C=C[C@@]31CCN(C)C2 [Galantamine, reference compound]
spontaneous alternation rate in Y-Maze ([5]; standard group: galantamine with scopolamine, P < 0.001 vs scopolamine-treated group): more than 80%
effect on time spent with the new object N (exploration time) in NOR test [4]: significant increase

Cc1ccc(/N=C/c2ccccc2Br)c(Cl)c1 [SB-5, (E)-N-(2-bromobenzylidene)-2-chloro-4-methylaniline]
IC50 [1]: 0.72 µM
IC50 [2]: 0.19 µM
IC50 [3]: 0.186 µM
IC50 [6]: 0.442 µM
effect on discrimination index in NOR test [4]: insignificant activity
effect on time spent with the new object N (exploration time) in NOR test [4]: insignificant activity
effect on latency time to discover familiar object (F) in NOR test [4]: significant decrease

Oc1ccc(/C=N/c2ccccc2C(F)(F)F)cc1 [SB-3, (E)-4-(((2-(trifluoromethyl)phenyl)imino)methyl)phenol]
spontaneous alternation rate in Y-Maze [5, 7]: 68.92 ± 1%
effect on spontaneous alternation / short-term memory retention in Y-Maze (significance) [5]: significantly improved
IC50 [1]: 0.305 µM
IC50 [2]: 0.118 µM
IC50 [3]: 0.057 µM
IC50 [6]: 0.157 µM
effect on discrimination index in NOR test [4]: most prominent activity
effect on time spent with the new object N (exploration time) in NOR test [4]: significant increase
effect on latency time to discover familiar object (F) in NOR test [4]: decreased the latency time significantly

COc1cc(/C=N/c2ccccc2C(F)(F)F)ccc1O [SB-1, (E)-2-methoxy-4-(((2-(trifluoromethyl)phenyl)imino)methyl)phenol]
spontaneous alternation rate in Y-Maze [5, 7]: 69.44 ± 1%
effect on spontaneous alternation / short-term memory retention in Y-Maze (significance) [5]: significantly improved
IC50 [1]: 0.588 µM
IC50 [2]: 0.208 µM
IC50 [3]: 0.265 µM
IC50 [6]: 0.078 µM
effect on discrimination index in NOR test [4]: most prominent activity; also recorded: more pronounced as compared to standard drug
effect on time spent with the new object N (exploration time) in NOR test [4]: significant increase
effect on latency time to discover familiar object (F) in NOR test [4]: decreased the latency time significantly
